Values quoted from earlier work, collected in patent publication US11589578B2, “Painting with biocides composition and/or prolonged release pesticides” (priority 2018, dated 2023).
Where two headings read alike, the source gives them in different places.

Details: for Stability in aqueous media, in words: pH as stated in the value

Question: Which “Decomposition time (Average life)” value (aqueous media, pH 10) does the source give for `CCOP(=S)(OCC)Oc1nc(Cl)c(Cl)cc1Cl` [Chlorpyrifos] here?
Answer: The value was 7 days.

Question: Which “Decomposition time (Average life)” value (aqueous media, pH 7) does the source give for `C=CCC1=C(C)C(OC(=O)C2C(C=C(C)C)C2(C)C)CC1=O` [D-allethrin] here?
Answer: Its value is 500 days.

Question: What about the “Decomposition time (Average life)” value (aqueous media, pH 9) of the same compound?
Answer: The value was “(4.3 days)”.

Question: What about the “Stability in aqueous media, in words” value of the same compound?
Answer: The value was “Stable at a pH 5 after 31 days”.

Question: With `CCOP(=S)(OCC)Oc1cc(C)nc(C(C)C)n1` [Diazinon] as the compound, how does the “Decomposition time (Average life)” value (aqueous media, pH 5) read?
Answer: Its value is 31 days.

Question: What about the “Decomposition time (Average life)” value (aqueous media, pH 7.5) of the same compound?
Answer: The value was 185 days.

Question: And the “Decomposition time (Average life)” value (aqueous media, pH 9)?
Answer: The value was 136 days.

Question: For `O=C(NC(=O)c1c(F)cccc1F)Nc1ccc(Cl)cc1` [Diflubenzuron], which “Behaviour at pH 9, in words” value (aqueous media, pH 9) is on record?
Answer: Its value is “Hydrolyzes”.

Question: With `CCN(CC)c1nc(C)cc(OP(=S)(OC)OC)n1` [Methylperimiphos] as the compound, how does the “Decomposition time (Average life)” value (aqueous media, pH 5) read?
Answer: The value was 7 days.

Question: What about the “Decomposition time (Average life)” value (aqueous media, pH 8) of the same compound?
Answer: Its value is 5 days.

Question: For `CC1(C)C(C=C(Cl)Cl)C1C(=O)OC(C#N)c1cccc(Oc2ccccc2)c1` (stereo not shown) [cypermethrin], which “Decomposition time (Average life)” value (aqueous media, pH 9) is on record?
Answer: Its value is 7 days.

Question: Which results are given for `CC1(C)[C@H](C(=O)O[C@H](C#N)c2cccc(Oc3ccccc3)c2)[C@@H]1C=C(Br)Br` [deltamethrin]?
Answer: Decomposition time (Average life) (aqueous media, pH 7): 0.33 days; Stability in aqueous media, in words: more stable in medium acid solutions
